Source: PMC11062899, “De novo development of small cyclic peptides that are orally bioavailable” (Nature Chemical Biology, 2023)
Values joined by “and” are separate entries in the source; they are usually repeats but may differ in a detail not shown here. Equal values may be shown once.

Columns and labels:
[1] = Measurement of in vivo gastrointestinal stability in rats; parameters: species or system rat; conditions: for Concentration in organ extract: rat n = 1, 30 min after p.o. 10 mg kg^−1
Protocol: Peptide 43 was dissolved in 10% Cremophor EL and 5% DMSO in water at a concentration of 1 mg ml^−1 and administrated by oral gavage to a rat at a dose of 10 mg kg^−1. The rat was killed 30 min after the administration using a CO2 chamber followed by cervical dislocation. Stomach, small intestine (duodenum/jejunum and ileum were collected separately) and large intestine were removed and immediately frozen in pre-cooled containers on dry ice. Organs and their respective content were collected separately to facilitate homogenization and sample processing. The organs were homogenized using a mortar and pestle on dry ice and liquid nitrogen to avoid thawing of the samples. Peptides were extracted by addition of 2 ml of extraction buffer containing 50 mM Tris-HCl (pH 8.0), 150 mM NaCl, 5 mM EDTA, 0.01% Triton-X, 1 mM PMSF and protease inhibitor cocktail (Sigma-Aldrich, P8340) per gram of organ or organ content weight and sonicating the resulting suspension for 5 min. Samples were centrifuged at 16,000g for 10 min, and 40 μl of the resulting supernatant was mixed with 120 μl of a cold acetonitrile:water (9:1) solution containing an internal standard (5 μg ml^−1). Samples were analyzed and quantified by LC–MS as described above.

[2] = target: T1, plasma kallikrein (Homo sapiens, UniProt P03952); assay: Target specificity profiling: plasma kallikrein; type: biochemical; conditions: replicates R1-R3
T1 construct: 0.25 nM plasma kallikrein (Innovative Research); purchased Innovative Research
T1 sequence (P03952 391-638 limits assumed): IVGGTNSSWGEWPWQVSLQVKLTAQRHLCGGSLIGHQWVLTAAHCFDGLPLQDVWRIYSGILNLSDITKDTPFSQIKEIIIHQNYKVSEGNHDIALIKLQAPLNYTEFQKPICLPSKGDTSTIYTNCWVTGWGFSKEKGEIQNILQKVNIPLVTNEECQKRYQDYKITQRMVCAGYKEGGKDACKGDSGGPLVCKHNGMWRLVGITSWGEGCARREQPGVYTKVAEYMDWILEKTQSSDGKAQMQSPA
T1 sequence (P03952 20-390 partner limits assumed): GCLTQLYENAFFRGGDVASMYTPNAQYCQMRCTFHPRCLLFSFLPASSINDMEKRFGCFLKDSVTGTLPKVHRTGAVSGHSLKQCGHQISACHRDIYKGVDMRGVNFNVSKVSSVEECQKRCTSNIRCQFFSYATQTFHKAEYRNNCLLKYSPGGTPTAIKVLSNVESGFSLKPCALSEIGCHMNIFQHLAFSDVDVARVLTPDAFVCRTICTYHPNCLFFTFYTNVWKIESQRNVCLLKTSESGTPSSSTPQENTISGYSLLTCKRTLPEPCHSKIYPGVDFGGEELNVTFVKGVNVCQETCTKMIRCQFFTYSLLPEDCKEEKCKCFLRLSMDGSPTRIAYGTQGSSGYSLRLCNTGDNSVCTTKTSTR
Protocol: (§1) The protease specificity was assessed by testing the inhibition of a series of trypsin-like serine proteases using fluorogenic or chromogenic substrates. Peptide dilutions ranging from 40 μM to 40 nM were prepared for all proteases except thrombin (1 μM to 1 nM). […]. The following fluorogenic substrates were used at a final concentration of 50 μM: Z-Gly-Gly-Arg-AMC (Bachem) for thrombin and trypsin; Z-Phe-Arg-AMC (Bachem) for plasma kallikrein; Boc-Phe-Ser-Arg-AMC (Bachem) for factor XIa; and Boc-Gln-Gly-Arg-AMC (Bachem) for factor XIIa. […]. Reactions were performed in a volume of 150 μl in 96-well plates. A volume of 50 μl of twofold dilutions of macrocycle in assay buffer was pipetted into the wells of the plates. A volume of 50 μl of protease in assay buffer was added to each well and incubated for 15 min. A volume of 50 μl of substrate in assay buffer containing 3% DMSO was added. Fluorescence intensity was measured for 30 min using an Infinite M200 Pro plate reader (Tecan; excitation at 368 nm, emission at 467 nm), with one measurement every minute. For APC protease, absorbance was measured at 405 nm using the same plate reader for a period of 30 min with one reading every minute. Reactions were performed at 25 °C. Data were analyzed by Excel (version 2016).

[3] = target: T2, activated protein C (APC) (Homo sapiens, UniProt P04070); assay: Target specificity profiling: activated protein C; type: biochemical; conditions: replicates R1-R3
T2 construct: purchased Molecular Innovations
T2 sequence (P04070 212-461 limits assumed): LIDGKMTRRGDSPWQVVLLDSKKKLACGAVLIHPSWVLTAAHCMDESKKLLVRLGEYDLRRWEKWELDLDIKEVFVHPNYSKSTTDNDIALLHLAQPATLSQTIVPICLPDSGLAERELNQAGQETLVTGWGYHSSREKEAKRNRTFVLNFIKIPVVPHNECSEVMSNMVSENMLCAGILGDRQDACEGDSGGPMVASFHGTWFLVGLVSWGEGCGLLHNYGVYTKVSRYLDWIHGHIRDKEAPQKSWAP
T2 sequence (P04070 43-197 partner limits assumed): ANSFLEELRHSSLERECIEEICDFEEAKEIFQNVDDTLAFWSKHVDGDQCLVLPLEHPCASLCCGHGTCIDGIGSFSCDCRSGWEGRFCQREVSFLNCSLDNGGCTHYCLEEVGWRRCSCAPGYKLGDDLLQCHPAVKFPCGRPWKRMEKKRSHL
Protocol: as §1

[4] = target: T3, factor XIa (Homo sapiens, UniProt P03951); assay: Target specificity profiling: factor XIa; type: biochemical; conditions: replicates R1-R3
T3 construct: 1 nM factor XIa (Innovative Research); purchased Innovative Research
T3 sequence (P03951 388-625 limits assumed): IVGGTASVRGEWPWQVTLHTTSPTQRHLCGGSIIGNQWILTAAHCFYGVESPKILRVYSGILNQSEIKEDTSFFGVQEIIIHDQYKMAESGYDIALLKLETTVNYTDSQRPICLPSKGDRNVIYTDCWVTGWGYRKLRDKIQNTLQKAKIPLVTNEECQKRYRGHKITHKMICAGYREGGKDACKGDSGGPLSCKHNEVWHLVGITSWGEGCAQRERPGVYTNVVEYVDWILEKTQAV
T3 sequence (P03951 19-387 partner limits assumed): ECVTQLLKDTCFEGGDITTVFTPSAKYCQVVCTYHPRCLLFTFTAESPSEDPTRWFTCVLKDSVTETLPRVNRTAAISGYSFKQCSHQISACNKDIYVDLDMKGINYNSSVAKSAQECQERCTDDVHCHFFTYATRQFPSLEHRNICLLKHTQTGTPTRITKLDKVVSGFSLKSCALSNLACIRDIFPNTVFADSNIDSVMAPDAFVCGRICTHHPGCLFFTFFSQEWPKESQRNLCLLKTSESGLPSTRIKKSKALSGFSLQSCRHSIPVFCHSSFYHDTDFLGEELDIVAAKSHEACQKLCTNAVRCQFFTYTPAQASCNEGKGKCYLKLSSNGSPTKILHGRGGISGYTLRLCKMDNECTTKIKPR
Protocol: as §1

[5] = target: T4, factor XIIa (Homo sapiens, UniProt P00748); assay: Target specificity profiling: factor XIIa; type: biochemical; conditions: replicates R1-R3
T4 construct: 5.3 nM factor XIIa (Molecular Innovations); purchased Molecular Innovations
T4 sequence (P00748 373-615 limits assumed, other chains not shown): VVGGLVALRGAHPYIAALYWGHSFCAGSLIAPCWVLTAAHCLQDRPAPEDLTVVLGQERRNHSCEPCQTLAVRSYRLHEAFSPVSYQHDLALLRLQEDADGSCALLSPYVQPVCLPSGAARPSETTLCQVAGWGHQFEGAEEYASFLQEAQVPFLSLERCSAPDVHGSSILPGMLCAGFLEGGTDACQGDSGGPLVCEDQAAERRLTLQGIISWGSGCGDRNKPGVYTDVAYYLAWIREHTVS
Protocol: as §1

[6] = target: T5, thrombin (Homo sapiens, UniProt P00734); assay: Target specificity profiling: thrombin; type: biochemical; conditions: replicates R1-R3
T5 construct: […]; purchased Molecular Innovations
Protocol: as §1

Structure (SMILES): O=C1C[C@H]2CCCN2C(=O)[C@H](Cc2ccccc2)NC(=O)[C@@H](NC(=O)c2ccc(Cl)s2)CCC=CCCCCN1 [peptide 43]
- Concentration in organ extract ([1]; Large intestine - content): 656 nM
- Concentration in organ extract ([1]; Large intestine): 500 nM
- Concentration in organ extract ([1]; Lower small instestine - content): 2900 nM
- Concentration in organ extract ([1]; Lower small instestine): 600 nM
- Concentration in organ extract ([1]; Stomach - content): 87600 nM
- Concentration in organ extract ([1]; Stomach): 31600 nM
- Concentration in organ extract ([1]; Upper small instestine - content): 13100 nM
- Concentration in organ extract ([1]; Upper small instestine): 2600 nM
- in vivo gastrointestinal stability ([1]; rats, 10 mg kg^−1 p.o., 30 min, stomach, small and large intestine): large fraction of the peptide fully intact

Structure (SMILES): O=C1C[C@H]2CCCN2C(=O)[C@H](Cc2ccccc2)NC(=O)[C@@H](NC(=O)c2ccc(Cl)cc2)CCC=CCCCCN1 (mixture of isomers) [peptide 46]
- Residual protease activity, Plasma kallikrein ([2]; inhibitor 1.00E+04 nM): 100.3 and 97.1 and 98.3
- Residual protease activity, Plasma kallikrein ([2]; inhibitor 1.25E+03 nM): 101.3 and 99.9 and 96.3
- Residual protease activity, Plasma kallikrein ([2]; inhibitor 1.56E+02 nM): 96.4 and 108.1 and 104.0
- Residual protease activity, Plasma kallikrein ([2]; inhibitor 2.00E+04 nM): 101.2 and 98.7 and 98.9
- Residual protease activity, Plasma kallikrein ([2]; inhibitor 2.50E+03 nM): 103.4 and 100.4 and 99.0
- Residual protease activity, Plasma kallikrein ([2]; inhibitor 3.12E+02 nM): 102.1 and 105.6 and 105.7
- Residual protease activity, Plasma kallikrein ([2]; inhibitor 3.91E+01 nM): 104.4 and 99.7 and 94.4
- Residual protease activity, Plasma kallikrein ([2]; inhibitor 4.00E+04 nM): 101.1 and 97.0 and 98.9
- Residual protease activity, Plasma kallikrein ([2]; inhibitor 5.00E+03 nM): 98.7 and 96.4 and 96.9
- Residual protease activity, Plasma kallikrein ([2]; inhibitor 6.25E+02 nM): 106.1 and 103.7 and 102.1
- Residual protease activity, Plasma kallikrein ([2]; inhibitor 7.81E+01 nM): 103.2 and 99.7 and 96.6
- Residual protease activity, APC ([3]; inhibitor 1.00E+04 nM): 101.7 and 94.1 and 93.6
- Residual protease activity, APC ([3]; inhibitor 1.25E+03 nM): 93.2 and 97.3 and 95.1
- Residual protease activity, APC ([3]; inhibitor 1.56E+02 nM): 95.1 and 104.3 and 101.7
- Residual protease activity, APC ([3]; inhibitor 2.00E+04 nM): 94.9 and 98.4 and 96.8
- Residual protease activity, APC ([3]; inhibitor 2.50E+03 nM): 94.9 and 96.5 and 96.6
- Residual protease activity, APC ([3]; inhibitor 3.12E+02 nM): 95.1 and 90.6 and 94.4
- Residual protease activity, APC ([3]; inhibitor 3.91E+01 nM): 96.3 and 96.7 and 99.0
- Residual protease activity, APC ([3]; inhibitor 4.00E+04 nM): 95.7 and 97.0 and 95.5
- Residual protease activity, APC ([3]; inhibitor 5.00E+03 nM): 98.3 and 99.0 and 99.1
- Residual protease activity, APC ([3]; inhibitor 6.25E+02 nM): 100.4 and 91.2 and 89.1
- Residual protease activity, APC ([3]; inhibitor 7.81E+01 nM): 108.2 and 108.3 and 107.3
- Residual protease activity, Factor Xia ([4]; inhibitor 1.00E+04 nM): 95.7 and 95.4 and 95.1
- Residual protease activity, Factor Xia ([4]; inhibitor 1.25E+03 nM): 96.1 and 95.1 and 96.0
- Residual protease activity, Factor Xia ([4]; inhibitor 1.56E+02 nM): 107.0 and 105.2 and 107.6
- Residual protease activity, Factor Xia ([4]; inhibitor 2.00E+04 nM): 93.9 and 90.3 and 94.5
- Residual protease activity, Factor Xia ([4]; inhibitor 2.50E+03 nM): 100.7 and 100.4 and 101.9
- Residual protease activity, Factor Xia ([4]; inhibitor 3.12E+02 nM): 89.3 and 92.0 and 107.2
- Residual protease activity, Factor Xia ([4]; inhibitor 3.91E+01 nM): 99.1 and 100.7 and 101.5
- Residual protease activity, Factor Xia ([4]; inhibitor 4.00E+04 nM): 101.0 and 99.6 and 99.1
- Residual protease activity, Factor Xia ([4]; inhibitor 5.00E+03 nM): 104.3 and 104.7 and 110.9
- Residual protease activity, Factor Xia ([4]; inhibitor 6.25E+02 nM): 94.0 and 96.1 and 97.6
- Residual protease activity, Factor Xia ([4]; inhibitor 7.81E+01 nM): 100.7 and 100.8 and 101.1
- Residual protease activity, Factor XIIa ([5]; inhibitor 1.00E+04 nM): 96.5 and 104.4 and 105.7
- Residual protease activity, Factor XIIa ([5]; inhibitor 1.25E+03 nM): 99.3 and 104.0 and 102.2
- Residual protease activity, Factor XIIa ([5]; inhibitor 1.56E+02 nM): 96.6 and 95.7 and 104.9
- Residual protease activity, Factor XIIa ([5]; inhibitor 2.00E+04 nM): 93.0 and 104.6 and 101.1
- Residual protease activity, Factor XIIa ([5]; inhibitor 2.50E+03 nM): 101.4 and 100.3 and 106.4
- Residual protease activity, Factor XIIa ([5]; inhibitor 3.12E+02 nM): 98.7 and 101.4 and 105.7
- Residual protease activity, Factor XIIa ([5]; inhibitor 3.91E+01 nM): 100.9 and 93.5 and 95.2
- Residual protease activity, Factor XIIa ([5]; inhibitor 4.00E+04 nM): 94.7 and 100.5 and 101.1
- Residual protease activity, Factor XIIa ([5]; inhibitor 5.00E+03 nM): 96.4 and 102.9 and 108.8
- Residual protease activity, Factor XIIa ([5]; inhibitor 6.25E+02 nM): 97.3 and 115.8 and 103.1
- Residual protease activity, Factor XIIa ([5]; inhibitor 7.81E+01 nM): 96.1 and 102.4 and 80.0
- Residual protease activity, Thrombin (human) ([6]; inhibitor 1.00E+03 nM): 3.9 and 4.0 and 3.8
- Residual protease activity, Thrombin (human) ([6]; inhibitor 1.25E+02 nM): 27.0 and 25.5 (2×)
- Residual protease activity, Thrombin (human) ([6]; inhibitor 1.56E+01 nM): 75.5 and 73.3 and 73.1
- Residual protease activity, Thrombin (human) ([6]; inhibitor 1.95E+00 nM): 95.2 and 97.7 and 95.3
- Residual protease activity, Thrombin (human) ([6]; inhibitor 2.50E+02 nM): 15.1 and 14.2 and 14.6
- Residual protease activity, Thrombin (human) ([6]; inhibitor 3.12E+01 nM): 59.3 and 58.1 and 56.4
- Residual protease activity, Thrombin (human) ([6]; inhibitor 3.91E+00 nM): 91.5 and 93.3 and 91.3
- Residual protease activity, Thrombin (human) ([6]; inhibitor 5.00E+02 nM): 7.6 and 7.4 (2×)
- Residual protease activity, Thrombin (human) ([6]; inhibitor 6.25E+01 nM): 44.1 and 42.5 and 42.8
- Residual protease activity, Thrombin (human) ([6]; inhibitor 7.81E+00 nM): 89.2 and 86.5 and 77.1
- Residual protease activity, Thrombin (human) ([6]; inhibitor 9.77E-01 nM): 99.8 and 102.7 and 98.9
